In patent publication US12186425B2, “Devices and methods for reducing cystine crystals in vivo” (University of Florida Research Foundation, Inc., priority 2017, dated 2025):
Values after ≈ are worked out from the molar mass of the structure shown. Values belong to the compound of their own block, whether it stands above or below them.

What was measured:
[1] = rabbit, in vivo; cited from earlier work
Solubility of cystine = type: physicochemical; conditions: phosphate buffered saline, aqueous buffer; read-out: saturated solution of cystine
[2] = reported; cited from earlier work

Structure (SMILES): NCCS [cysteamine, β-mercaptoethylamine]
eye drop concentration above which toxicity occurred [1]: > 0.55%

solubility thermodynamic (Solubility of cystine): 110 µg/mL (≈ 458 µM)
Structure (SMILES): N[C@@H](CSSC[C@H](N)C(=O)O)C(=O)O [cystine]

Structure (SMILES): CC(C)(C)NC[C@H](O)COc1nsnc1N1CCOCC1 [timolol]
epithelium permeability [2]: 1.2×10^−7 m/s
